Measured values reported in US6828338B2, “Substituted polycyclic aryl and heteroaryl pyridines useful for selective inhibition of the coagulation cascade” (Pharmacia Corporation, priority 2000, dated 2004).

Biological target: T1, Human factor Xa (Homo sapiens, UniProt P00742)
T1 construct: leads from XII to XIIa to XIa to IXa and to the conversion of X to Xa; purchased Enzyme Research Laboratories, South Bend Ind
Test: Xa Assay
Format: biochemical
Experimental: Human factor Xa (0.3 nM) and 0.15 mM N-a-Benzyloxycarbonyl-D-arginyl-L-glycyl-L-arginine-p-nitroaniline-dihydrochloride (S-2765) are added to a 96-well assay plate containing either inhibitor or buffer (50 mM Tris-HCl, pH 8.0, 100 mM NaCl, 0.1% BSA). The reaction, in a final volume of 100 ul is measured immediately at 405 nm to determine background absorbance. The plate is incubated at room temperature for 60 min, at which time the rate of hydrolysis of the substrate is measured by monitoring the reaction at 405 nm for the release of p-nitroaniline. Percent inhibition of Xa activity is calculated from OD405 nm value from the experimental and control sample.
Recombinant soluble TF, consisting of amino acids 1-219 of the mature protein sequence was expressed in E. coli and purified using a Mono Q Sepharose FPLC. Recombinant human VIIa was purchased from American Diagnostica, Greenwich Conn. and chromogenic substrate N-Methylsulfonyl-D-phe-gly-arg-p-nitroaniline was prepared by American Peptide Company, Inc., Sunnyvale, Calif. Factor Xa was obtained from Enzyme Research Laboratories, South Bend Ind., thrombin from Calbiochem, La Jolla, Calif., and trypsin and L-BAPNA from Sigma, St. Louis Mo. The chromogenic substrates S-2765 and S-2238 were purchased from Chromogenix, Sweden.

T1 sequence (P00742 235-488 limits assumed): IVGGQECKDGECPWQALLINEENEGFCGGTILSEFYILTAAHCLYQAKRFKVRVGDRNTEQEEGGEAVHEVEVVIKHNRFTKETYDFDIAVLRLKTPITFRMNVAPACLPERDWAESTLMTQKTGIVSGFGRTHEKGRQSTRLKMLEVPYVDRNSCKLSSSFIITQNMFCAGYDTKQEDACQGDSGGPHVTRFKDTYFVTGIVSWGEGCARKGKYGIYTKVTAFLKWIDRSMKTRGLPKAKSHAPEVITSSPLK
T1 sequence (P00742 41-179 limits assumed): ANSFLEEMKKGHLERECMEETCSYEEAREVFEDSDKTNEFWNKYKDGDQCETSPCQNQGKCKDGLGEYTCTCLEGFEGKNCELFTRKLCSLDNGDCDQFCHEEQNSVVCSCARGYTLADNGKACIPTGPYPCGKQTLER

Row | IC50 [µM] | SMILES
1 | > 100 | CC(C)Nc1ccc(-c2cc(N)cc(N)c2)c(CC(=O)NCc2ccc(C(=N)N)cc2)[n+]1[O-] [Example 7]
2 | > 100 | CC(C)Nc1ccc(/C=C/c2ccccc2)c(CC(=O)NCc2ccc(C(=N)N)cc2)[n+]1[O-] [Example 12]
